Measured values taken from patent publication US9936701B2, “Herbicidal compounds” (Syngenta Participations AG, priority 2013, dated 2018).
Values belong to the molecule of their own block, whether it stands above or below them.

Key:
[1] = test system: a variety of test species; experiment: Pre-emergence herbicidal activity (glasshouse, sprayed one day after sowing, evaluated after 13 days); type: in vivo; design: key: 5=total damage to plant; 0=no damage to plant; details: application pre-emergence, rate 1000 g/Ha, scale 0-5
In short: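 Visual 0–5 injury score (5 = total damage) taken 13 days after spraying. Treatment applied one day after sowing, before emergence; glasshouse at 24/16 °C day/night, 14 h photoperiod, 65% humidity.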

[2] = test system: a variety of test species; experiment: Post-emergence herbicidal activity (glasshouse, sprayed after 8 days cultivation, evaluated after 13 days); type: in vivo; design: key: 5=total damage to plant; 0=no damage to plant; details: rate 1000 g/Ha, scale 0-5
In short: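 Seeds were sown in standard soil and cultivated for 8 days under controlled glasshouse conditions. Seedlings were then sprayed with an aqueous solution of the formulated compound containing 0.5% Tween 20. Injury was rated after a further 13 days, where 5 indicated total damage.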

Compound: CC1=C(Cl)C(=O)N(c2noc(C(C)(C)C)c2C#N)C1O (centres unmarked) [A31, 5-tert-butyl-3-(4-chloro-2-hydroxy-3-methyl-5-oxo-2H-pyrrol-1-yl)isoxazole-4-carbonitrile]
Pre-emergence herbicidal damage score, ABUTH [1]: 5 | Pre-emergence herbicidal damage score, ALOMY [1]: 3 | Pre-emergence herbicidal damage score, AMARE [1]: 5 | Pre-emergence herbicidal damage score, ECHCG [1]: 5 | Pre-emergence herbicidal damage score, SETFA [1]: 5 | Pre-emergence herbicidal damage score, ZEAMX [1]: 3 | ABUTH (Abutilon theophrasti) damage score, application post-emergence [2]: 5 | ALOMY (Alopecurus myosuroides) damage score, application post-emergence [2]: 5 | AMARE (Amaranthus retroflexus) damage score, application post-emergence [2]: 5 | ECHCG (Echinochloa crus-galli) damage score, application post-emergence [2]: 5 | SETFA (Setaria faberi) damage score, application post-emergence [2]: 5 | ZEAMX (Zea mays) damage score, application post-emergence [2]: 4 | melting point: 174 to 176 °C

Compound: C=CCOCC(C)(C)c1cc(N2C(=O)C(Cl)=C(C)C2O)no1 (centres unmarked) [A33]
Pre-emergence herbicidal damage score, ABUTH [1]: 3 | Pre-emergence herbicidal damage score, ALOMY [1]: 2 | Pre-emergence herbicidal damage score, AMARE [1]: 5 | Pre-emergence herbicidal damage score, ECHCG [1]: 4 | Pre-emergence herbicidal damage score, SETFA [1]: 3 | Pre-emergence herbicidal damage score, ZEAMX [1]: 3 | ABUTH (Abutilon theophrasti) damage score, application post-emergence [2]: 5 | ALOMY (Alopecurus myosuroides) damage score, application post-emergence [2]: 4 | AMARE (Amaranthus retroflexus) damage score, application post-emergence [2]: 5 | ECHCG (Echinochloa crus-galli) damage score, application post-emergence [2]: 5 | SETFA (Setaria faberi) damage score, application post-emergence [2]: 4 | ZEAMX (Zea mays) damage score, application post-emergence [2]: 5 | melting point: 66 to 68 °C

Compound: CCOCC(C)(C)c1cc(N2C(=O)C(Cl)=C(C)C2O)no1 (centres unmarked) [A34]
Pre-emergence herbicidal damage score, ABUTH [1]: 5 | Pre-emergence herbicidal damage score, ALOMY [1]: 3 | Pre-emergence herbicidal damage score, AMARE [1]: 5 | Pre-emergence herbicidal damage score, ECHCG [1]: 5 | Pre-emergence herbicidal damage score, SETFA [1]: 4 | Pre-emergence herbicidal damage score, ZEAMX [1]: 2 | ABUTH (Abutilon theophrasti) damage score, application post-emergence [2]: 5 | ALOMY (Alopecurus myosuroides) damage score, application post-emergence [2]: 4 | AMARE (Amaranthus retroflexus) damage score, application post-emergence [2]: 5 | ECHCG (Echinochloa crus-galli) damage score, application post-emergence [2]: 5 | SETFA (Setaria faberi) damage score, application post-emergence [2]: 4 | ZEAMX (Zea mays) damage score, application post-emergence [2]: 5 | melting point: 99 to 101 °C

Continued, in another order:

melting point: 103 to 105 °C
Compound: CCC(C)(C)c1cc(N2C(=O)C(Cl)=C(C)C2O)no1 (centres unmarked) [A29]
Pre-emergence herbicidal damage score, ABUTH [1]: 5 | Pre-emergence herbicidal damage score, ALOMY [1]: 3 | Pre-emergence herbicidal damage score, AMARE [1]: 5 | Pre-emergence herbicidal damage score, ECHCG [1]: 5 | Pre-emergence herbicidal damage score, SETFA [1]: 4 | Pre-emergence herbicidal damage score, ZEAMX [1]: 1 | ABUTH (Abutilon theophrasti) damage score, application post-emergence [2]: 5 | ALOMY (Alopecurus myosuroides) damage score, application post-emergence [2]: 4 | AMARE (Amaranthus retroflexus) damage score, application post-emergence [2]: 5 | ECHCG (Echinochloa crus-galli) damage score, application post-emergence [2]: 5 | SETFA (Setaria faberi) damage score, application post-emergence [2]: 4 | ZEAMX (Zea mays) damage score, application post-emergence [2]: 3

melting point: 118 to 120 °C
Compound: CC1=C(Cl)C(=O)N(c2cc(C(C)c3ccccc3)on2)C1O (centres unmarked) [A30]
Pre-emergence herbicidal damage score, ABUTH [1]: 2 | Pre-emergence herbicidal damage score, ALOMY [1]: 2 | Pre-emergence herbicidal damage score, AMARE [1]: 4 | Pre-emergence herbicidal damage score, ECHCG [1]: 1 | Pre-emergence herbicidal damage score, SETFA [1]: 1 | Pre-emergence herbicidal damage score, ZEAMX [1]: 1 | ABUTH (Abutilon theophrasti) damage score, application post-emergence [2]: 5 | ALOMY (Alopecurus myosuroides) damage score, application post-emergence [2]: 3 | AMARE (Amaranthus retroflexus) damage score, application post-emergence [2]: 5 | ECHCG (Echinochloa crus-galli) damage score, application post-emergence [2]: 5 | SETFA (Setaria faberi) damage score, application post-emergence [2]: 4 | ZEAMX (Zea mays) damage score, application post-emergence [2]: 2
